Measurements as given in ChEMBL document CHEMBL1201862, “PubChem BioAssay data set” (2004).
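A five-concentration, 48-hour dose response in 96-well plates underlies each endpoint, interpolated linearly between surrounding concentrations. GI50 = concentration required for 50% inhibition of growth.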 Activity calls are given as the source filed them. No stated cut-off is given here; in the data, active = GI50 up to about 1.1 µM and inactive = higher.

Columns and labels:
Test in all cases: DTP human tumour cell line panel, 48 h
[1] = test system: SK-OV-3
[2] = test system: HT-29
[3] = test system: NCI-H460
[4] = test system: U-251
[5] = test system: SNB-19
[6] = test system: MOLT-4
[7] = test system: OVCAR-8
[8] = test system: SK-MEL-5
[9] = test system: SF-295
[10] = test system: CCRF-CEM
[11] = test system: HCT-15
[12] = test system: TK-10
[13] = test system: OVCAR-5
[14] = test system: OVCAR-4
[15] = test system: HOP-92
[16] = test system: A549
[17] = test system: SW-620
[18] = test system: EKVX
[19] = test system: SK-MEL-28
[20] = test system: HL-60

Row | Structure (SMILES) | GI50 [1] | GI50 [2] | GI50 [3] | GI50 [4] | GI50 [5] | GI50 [6] | GI50 [7] | GI50 [8] | GI50 [9] | GI50 [10] | GI50 [11] [µM] | GI50 [12] | GI50 [13] | GI50 [14] | GI50 [15] | GI50 [16] | GI50 [17] | GI50 [18] | GI50 [19] | GI50 [20]
1 | O=C(O)C(CCc1ccccc1)N1C(=O)c2ccccc2C1=O (stereo not given) | > 100 µM (inactive) | > 100 µM (inactive) | > 100 µM (inactive) | > 100 µM (inactive) | > 100 µM (inactive) | > 100 µM (inactive) | > 100 µM (inactive) | > 100 µM (inactive) | > 100 µM (inactive) | > 100 µM (inactive) | > 100 | > 100 µM (inactive) | > 100 µM (inactive) | > 100 µM (inactive) | > 100 µM (inactive) | > 100 µM (inactive) | > 100 µM (inactive) | > 100 µM (inactive) | > 100 µM (inactive) | > 100 µM (inactive)
2 | CCOC(=O)COc1cccc2occc(=O)c12 | > 100 µM (inactive) | > 100 µM (inactive) | > 100 µM (inactive) | > 100 µM (inactive) | > 100 µM (inactive) | > 100 µM (inactive) | > 100 µM (inactive) | > 100 µM (inactive) | > 100 µM (inactive) | > 100 µM (inactive) | > 100 | > 100 µM (inactive) | > 100 µM (inactive) | > 100 µM (inactive) | > 100 µM (inactive) | > 100 µM (inactive) | > 100 µM (inactive) | > 100 µM (inactive) | > 100 µM (inactive) | > 100 µM (inactive)
3 | CCCCC1=C(C(=O)N2CCOCC2)C2(OCCO2)C1=O | 62.4 µM (inactive) | 18.8 µM (inactive) | 24.8 µM (inactive) | 31.3 µM (inactive) | 14 µM (inactive) | 51.2 µM (inactive) | 23.2 µM (inactive) | 16.5 µM (inactive) | 32.5 µM (inactive) | 32.2 µM (inactive) | 18.2 | 33.3 µM (inactive) | 16.9 µM (inactive) | 23.1 µM (inactive) | 23.1 µM (inactive) | 18 µM (inactive) | 27.3 µM (inactive) | 26.2 µM (inactive) | 27.5 µM (inactive) | 30.2 µM (inactive)
4 | OCC1OC(n2ccc3cnccc32)CC1O (stereo not given) | > 100 µM (inactive) | > 100 µM (inactive) | > 100 µM (inactive) | > 100 µM (inactive) | > 100 µM (inactive) | > 100 µM (inactive) | > 100 µM (inactive) | > 100 µM (inactive) | > 100 µM (inactive) | > 100 µM (inactive) | > 100 | > 100 µM (inactive) | > 100 µM (inactive) | > 100 µM (inactive) | > 100 µM (inactive) | > 100 µM (inactive) | > 100 µM (inactive) | > 100 µM (inactive) | > 100 µM (inactive) | > 100 µM (inactive)
5 | Cc1cc(N(CCC#N)S(=O)(=O)c2ccccc2)ccc1/C=N\c1cccc(C(=O)O)c1 | > 100 µM (inactive) | > 100 µM (inactive) | > 100 µM (inactive) | > 100 µM (inactive) | > 100 µM (inactive) | > 100 µM (inactive) | > 100 µM (inactive) | 83.6 µM (inactive) | > 100 µM (inactive) | > 100 µM (inactive) | > 100 | > 100 µM (inactive) | > 100 µM (inactive) | > 100 µM (inactive) | > 100 µM (inactive) | > 100 µM (inactive) | > 100 µM (inactive) | > 100 µM (inactive) | > 100 µM (inactive) | > 100 µM (inactive)
6 | FC(F)(F)C(C1=NC(C(F)(F)F)(C(F)(F)F)N=C(N2CCOCC2)O1)C(F)(F)F | 31.3 µM (inactive) | 18.7 µM (inactive) | 29 µM (inactive) | 19.9 µM (inactive) | 25.9 µM (inactive) | 28.9 µM (inactive) | 15.3 µM (inactive) | 11.9 µM (inactive) | 16 µM (inactive) | 4.71 µM (inactive) | 26.1 | 28.7 µM (inactive) | 18.1 µM (inactive) | 22.9 µM (inactive) | 25.8 µM (inactive) | 18.5 µM (inactive) | 14.2 µM (inactive) | 17.1 µM (inactive) | 20.1 µM (inactive) | 5.57 µM (inactive)
7 | Cc1ccc([N+](=O)[O-])cc1NC(=O)C(=O)C(C(=O)c1ccccc1F)C1OC(=O)c2ccccc21 (stereo not given) | 46.5 µM (inactive) | 38.5 µM (inactive) | 38.9 µM (inactive) | 18.1 µM (inactive) | 15.3 µM (inactive) | 36.1 µM (inactive) | 25.2 µM (inactive) | 63.1 µM (inactive) | 42.6 µM (inactive) | 26.8 µM (inactive) | 26.7 | > 100 µM (inactive) | 61.4 µM (inactive) | 65 µM (inactive) | > 100 µM (inactive) | 50.1 µM (inactive) | 35.1 µM (inactive) | 46 µM (inactive) | 36.4 µM (inactive) | 26.9 µM (inactive)
8 | O=c1c2c3c(sc2nc(CN2CCNCC2)n1-c1ccccc1)CCCC3 | > 100 µM (inactive) | 35.9 µM (inactive) | > 100 µM (inactive) | > 100 µM (inactive) | > 100 µM (inactive) | > 100 µM (inactive) | > 100 µM (inactive) | > 100 µM (inactive) | > 100 µM (inactive) | > 100 µM (inactive) | > 100 | > 100 µM (inactive) | > 100 µM (inactive) | 22.8 µM (inactive) | > 100 µM (inactive) | > 100 µM (inactive) | > 100 µM (inactive) | > 100 µM (inactive) | > 100 µM (inactive) | > 100 µM (inactive)
9 | CC1(C)COC2C(N(Cc3ccccc3)Cc3ccccc3)C(=O)N21 (stereo not given) | 24.9 µM (inactive) | 31.8 µM (inactive) | 39.7 µM (inactive) | 26.3 µM (inactive) | 24 µM (inactive) | 25.9 µM (inactive) | 32.1 µM (inactive) | 37.2 µM (inactive) | 32.1 µM (inactive) | 32.7 µM (inactive) | 39.6 | 37.2 µM (inactive) | > 100 µM (inactive) | 27.9 µM (inactive) | 29.3 µM (inactive) | 32.6 µM (inactive) | 35.9 µM (inactive) | 73.1 µM (inactive) | 42.3 µM (inactive) | 22.3 µM (inactive)
10 | CN(C)c1n/c(=N/c2ccc(/N=c3\nc(N(C)C)ss3)cc2)ss1 | > 100 µM (inactive) | 21.9 µM (inactive) | 30.2 µM (inactive) | 29.9 µM (inactive) | 32.4 µM (inactive) | 8.49 µM (inactive) | 16.7 µM (inactive) | 22.4 µM (inactive) | 39.8 µM (inactive) | 4.99 µM (inactive) | 27 | 24.2 µM (inactive) | > 100 µM (inactive) | 20 µM (inactive) | > 100 µM (inactive) | 37.9 µM (inactive) | > 40.7 µM (inactive) | > 74.8 µM (inactive) | 16.8 µM (inactive) | 12.4 µM (inactive)
